# Test results published in PubChem BioAssay AID248 (DTP/NCI, 2004).
# Values joined by “and” are separate entries in the source; they are usually repeats but may differ in a detail not shown here. Equal entries are not always repeated. Toxic doses and inconclusive results are not listed.
# Test system: L1210 leukemia ip in BDF1 mice, survival T/C
# Assay: NCI In Vivo Anticancer Drug Screen. Data for tumor model L1210 Leukemia (intraperitoneal) in B6D2F1 (BDF1) mice
# Settings: higher = longer survival
# Procedure, shortened: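 Tumor was transplanted into mice, which were then dosed with test compound or vehicle alone. Survival was recorded for each group, and the treated figure was expressed relative to the control figure.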
# [1] = endpoint: mean survival time, dose: 100.0 mg/kg/injection, schedule: Q01DX009 (ip), vehicle: Klucel (hydroxypropylcellulose) (HPC)
# [2] = endpoint: mean survival time, dose: 100.0 mg/kg/injection, schedule: Q04DX003 (ip), vehicle: Klucel (hydroxypropylcellulose) (HPC)
# [3] = endpoint: mean survival time, dose: 200.0 mg/kg/injection, schedule: Q01DX009 (ip), vehicle: Klucel (hydroxypropylcellulose) (HPC)
# [4] = endpoint: mean survival time, dose: 200.0 mg/kg/injection, schedule: Q04DX003 (ip), vehicle: Klucel (hydroxypropylcellulose) (HPC)
# [5] = endpoint: mean survival time, dose: 400.0 mg/kg/injection, schedule: Q01DX009 (ip), vehicle: Klucel (hydroxypropylcellulose) (HPC)
# [6] = endpoint: mean survival time, dose: 400.0 mg/kg/injection, schedule: Q04DX003 (ip), vehicle: Klucel (hydroxypropylcellulose) (HPC)
compound,measurement,setting,value
CC1(c2cccc([N+](=O)[O-])c2)OCCO1,T/C,"endpoint: mean survival time, dose: 100.0 mg/kg/injection, schedule: Q01DX009 (ip), vehicle: other",100 % of control
same,T/C,"endpoint: mean survival time, dose: 100.0 mg/kg/injection, schedule: Q04DX003 (ip), vehicle: other",103 % of control
same,T/C,"endpoint: mean survival time, dose: 200.0 mg/kg/injection, schedule: Q01DX009 (ip), vehicle: other",98 % of control
same,T/C,"endpoint: mean survival time, dose: 200.0 mg/kg/injection, schedule: Q04DX003 (ip), vehicle: other",104 % of control
same,T/C,"endpoint: mean survival time, dose: 400.0 mg/kg/injection, schedule: Q01DX009 (ip), vehicle: other",104 % of control
same,T/C,"endpoint: mean survival time, dose: 400.0 mg/kg/injection, schedule: Q04DX003 (ip), vehicle: other",100 % of control
O=[N+]([O-])c1cccc(S(=O)(=O)OCn2ncc3ccc([N+](=O)[O-])cc32)c1,T/C,"endpoint: mean survival time, dose: 5.0 mg/kg/injection, schedule: Q01DX001 (ip), vehicle: saline",94 % of control
same,T/C,"endpoint: mean survival time, dose: 10.0 mg/kg/injection, schedule: Q01DX001 (ip), vehicle: saline",100 % of control
same,T/C,"endpoint: mean survival time, dose: 20.0 mg/kg/injection, schedule: Q01DX001 (ip), vehicle: saline",100 % of control
same,T/C,"endpoint: mean survival time, dose: 40.0 mg/kg/injection, schedule: Q01DX001 (ip), vehicle: saline",97 % of control
CCOP(=S)(Nc1cccc(C(F)(F)F)c1)OCC,T/C,"endpoint: mean survival time, dose: 100.0 mg/kg/injection, schedule: Q01DX001 (ip), vehicle: saline",102 % of control
same,T/C,"endpoint: mean survival time, dose: 200.0 mg/kg/injection, schedule: Q01DX001 (ip), vehicle: saline",100 % of control
same,T/C,"endpoint: mean survival time, dose: 400.0 mg/kg/injection, schedule: Q01DX001 (ip), vehicle: saline",96 % of control
CCCCCCCCCCNC(C)=O,T/C,[1],104 % of control
same,T/C,[2],109 % of control
same,T/C,[3],106 % of control
same,T/C,[4],96 % of control
same,T/C,[5],89 % of control
same,T/C,[6],102 % of control
Cc1cccc(N=Nc2ccc(O)cc2)c1,T/C,[1],100 % of control
same,T/C,[3],97 % of control
same,T/C,[5],101 % of control
O=C(COc1ccc([N+](=O)[O-])cc1)Nc1cccnc1,T/C,"endpoint: mean survival time, dose: 100.0 mg/kg/injection, schedule: Q04DX003 (ip), vehicle: saline with Tween-80",96 % of control
same,T/C,"endpoint: mean survival time, dose: 200.0 mg/kg/injection, schedule: Q04DX003 (ip), vehicle: saline with Tween-80",95 % of control
same,T/C,"endpoint: mean survival time, dose: 400.0 mg/kg/injection, schedule: Q04DX003 (ip), vehicle: saline with Tween-80",96 % of control
OCC1OC(n2cnc3c(=S)nc[nH]c32)C(O)C1O (stereo unspecified),T/C,"endpoint: mean survival time, dose: 4.69 mg/kg/injection, schedule: Q01DX009 (ip), vehicle: water",103 % of control
same,T/C,"endpoint: mean survival time, dose: 9.38 mg/kg/injection, schedule: Q01DX009 (ip), vehicle: water",109 % of control
same,T/C,"endpoint: mean survival time, dose: 10.0 mg/kg/injection, schedule: Q01DX009 (ip), vehicle: saline",117 % of control and 120 % of control
same,T/C,"endpoint: mean survival time, dose: 14.02 mg/kg/injection, schedule: Q01DX Z (ip), vehicle: carboxymethylcellulose (CMC)",121 % of control
same,T/C,"endpoint: mean survival time, dose: 17.88 mg/kg/injection, schedule: Q01DX Z (ip), vehicle: carboxymethylcellulose (CMC)",119 % of control
same,T/C,"endpoint: mean survival time, dose: 18.25 mg/kg/injection, schedule: Q01DX Z (ip), vehicle: carboxymethylcellulose (CMC)",122 % of control
same,T/C,"endpoint: mean survival time, dose: 18.75 mg/kg/injection, schedule: Q01DX009 (ip), vehicle: water",117 % of control
same,T/C,"endpoint: mean survival time, dose: 20.0 mg/kg/injection, schedule: Q01DX010 (ip), vehicle: saline",111 % of control
same,T/C,"endpoint: mean survival time, dose: 23.83 mg/kg/injection, schedule: Q01DX Z (ip), vehicle: carboxymethylcellulose (CMC)",115 % of control
same,T/C,"endpoint: mean survival time, dose: 35.75 mg/kg/injection, schedule: Q01DX Z (ip), vehicle: carboxymethylcellulose (CMC)",123 % of control
same,T/C,"endpoint: mean survival time, dose: 36.5 mg/kg/injection, schedule: Q01DX Z (ip), vehicle: carboxymethylcellulose (CMC)",123 % of control
same,T/C,"endpoint: mean survival time, dose: 37.5 mg/kg/injection, schedule: Q01DX009 (ip), vehicle: water",112 % of control
same,T/C,"endpoint: mean survival time, dose: 37.5 mg/kg/injection, schedule: Q01DX Z (ip), vehicle: carboxymethylcellulose (CMC)",100 % of control
same,T/C,"endpoint: mean survival time, dose: 50.0 mg/kg/injection, schedule: Q01DX009 (ip), vehicle: saline",121 % of control
same,T/C,"endpoint: mean survival time, dose: 75.0 mg/kg/injection, schedule: Q01DX015 (ip), vehicle: carboxymethylcellulose (CMC)",151 % of control
same,T/C,"endpoint: mean survival time, dose: 75.0 mg/kg/injection, schedule: Q01DX Z (ip), vehicle: carboxymethylcellulose (CMC)",113 % of control
same,T/C,"endpoint: mean survival time, dose: 100.0 mg/kg/injection, schedule: Q01DX005 (ip), vehicle: saline",123 % of control
same,T/C,"endpoint: mean survival time, dose: 100.0 mg/kg/injection, schedule: Q01DX009 (ip), vehicle: carboxymethylcellulose (CMC)",114 % of control
same,T/C,"endpoint: mean survival time, dose: 107.25 mg/kg/injection, schedule: Q01DX Z (ip), vehicle: carboxymethylcellulose (CMC)",152 % of control
same,T/C,"endpoint: mean survival time, dose: 120.0 mg/kg/injection, schedule: Q01DX001 (ip), vehicle: carboxymethylcellulose (CMC)",98 % of control
same,T/C,"endpoint: mean survival time, dose: 125.0 mg/kg/injection, schedule: Q03HX024 (ip), vehicle: saline",114 % of control
same,T/C,"endpoint: mean survival time, dose: 150.0 mg/kg/injection, schedule: Q## X Z (ip), vehicle: carboxymethylcellulose (CMC)",107 % of control
same,T/C,"endpoint: mean survival time, dose: 160.0 mg/kg/injection, schedule: Q01DX010 (ip), vehicle: saline",153 % of control and 155 % of control
same,T/C,"endpoint: mean survival time, dose: 180.0 mg/kg/injection, schedule: Q01DX001 (ip), vehicle: alkali diluted with saline",108 % of control
same,T/C,"endpoint: mean survival time, dose: 180.0 mg/kg/injection, schedule: Q01DX001 (ip), vehicle: carboxymethylcellulose (CMC)",118 % of control
same,T/C,"endpoint: mean survival time, dose: 188.0 mg/kg/injection, schedule: Q03HX024 (ip), vehicle: clinical formulation",104 % of control
same,T/C,"endpoint: mean survival time, dose: 188.0 mg/kg/injection, schedule: Q03HX024 (ip), vehicle: saline",115 % of control
same,T/C,"endpoint: mean survival time, dose: 200.0 mg/kg/injection, schedule: Q01DX009 (ip), vehicle: saline",163 % of control and 181 % of control
same,T/C,"endpoint: mean survival time, dose: 270.0 mg/kg/injection, schedule: Q01DX001 (ip), vehicle: alkali diluted with saline",119 % of control
same,T/C,"endpoint: mean survival time, dose: 270.0 mg/kg/injection, schedule: Q01DX001 (ip), vehicle: carboxymethylcellulose (CMC)",114 % of control
same,T/C,"endpoint: mean survival time, dose: 300.0 mg/kg/injection, schedule: Q03HX024 (ip), vehicle: saline",95 % of control and 108 % of control
same,T/C,"endpoint: mean survival time, dose: 320.0 mg/kg/injection, schedule: Q01DX009 (ip), vehicle: saline",152 % of control and 166 % of control
same,T/C,"endpoint: mean survival time, dose: 600.0 mg/kg/injection, schedule: Q01DX001 (ip), vehicle: alkali diluted with saline",120 % of control
same,T/C,"endpoint: mean survival time, dose: 600.0 mg/kg/injection, schedule: Q## X Z (ip), vehicle: carboxymethylcellulose (CMC)",93 % of control
same,T/C,"endpoint: mean survival time, dose: 800.0 mg/kg/injection, schedule: Q01DX001 (ip), vehicle: saline",103 % of control
same,T/C,"endpoint: mean survival time, dose: 800.0 mg/kg/injection, schedule: Q01DX009 (ip), vehicle: carboxymethylcellulose (CMC)",122 % of control
same,T/C,"endpoint: mean survival time, dose: 1000.0 mg/kg/injection, schedule: Q## X Z (ip), vehicle: carboxymethylcellulose (CMC)",121 % of control
same,T/C,"endpoint: mean survival time, dose: 1200.0 mg/kg/injection, schedule: Q01DX001 (ip), vehicle: saline",107 % of control
same,T/C,"endpoint: mean survival time, dose: 1600.0 mg/kg/injection, schedule: Q01DX001 (ip), vehicle: saline",114 % of control
same,T/C,"endpoint: median survival time, dose: 50.0 mg/kg/injection, schedule: Q03HX024 (ip), vehicle: other",155 % of control
same,T/C,"endpoint: median survival time, dose: 100.0 mg/kg/injection, schedule: Q03HX024 (ip), vehicle: other",155 % of control
same,T/C,"endpoint: median survival time, dose: 100.0 mg/kg/injection, schedule: Q03HX024 (sc), vehicle: other",150 % of control
same,T/C,"endpoint: median survival time, dose: 200.0 mg/kg/injection, schedule: Q03HX024 (ip), vehicle: other",155 % of control
same,T/C,"endpoint: median survival time, dose: 200.0 mg/kg/injection, schedule: Q03HX024 (sc), vehicle: other",155 % of control
same,T/C,"endpoint: median survival time, dose: 400.0 mg/kg/injection, schedule: Q03HX024 (ip), vehicle: other",111 % of control
same,T/C,"endpoint: median survival time, dose: 800.0 mg/kg/injection, schedule: Q01DX001 (ip), vehicle: other",111 % of control
same,T/C,"endpoint: median survival time, dose: 800.0 mg/kg/injection, schedule: Q01DX001 (sc), vehicle: other",111 % of control
same,T/C,"endpoint: median survival time, dose: 800.0 mg/kg/injection, schedule: Q04DX003 (ip), vehicle: other",122 % of control
same,T/C,"endpoint: median survival time, dose: 800.0 mg/kg/injection, schedule: Q04DX003 (sc), vehicle: other",122 % of control
same,T/C,"endpoint: median survival time, dose: 1600.0 mg/kg/injection, schedule: Q01DX001 (ip), vehicle: other",116 % of control
same,T/C,"endpoint: median survival time, dose: 1600.0 mg/kg/injection, schedule: Q01DX001 (sc), vehicle: other",116 % of control
same,T/C,"endpoint: median survival time, dose: 3200.0 mg/kg/injection, schedule: Q01DX009 (sc), vehicle: other",100 % of control
same,T/C,"endpoint: median survival time, dose: 3200.0 mg/kg/injection, schedule: Q04DX003 (sc), vehicle: other",150 % of control
O=C1/C(=C/c2ccc(O)c(O)c2)Cc2ccccc21,T/C,[2],117 % of control
same,T/C,[4],105 % of control
same,T/C,[6],104 % of control
